# Measurements: ChEMBL document CHEMBL3507680, “University of Dundee, Gates Library screen for HepG2 cell viability”
# Experiment: Human HepG2 cell viability assay in 384 well format
# Format: toxicity, cell-based
# Design: dose 125 nL, time 70.5 hour; concentration not given beside the values
# Settings: HepG2 cells, read-out: Inhibition
row,SMILES,cytotoxicity at 70.5 h [%]
1,FC1(F)CCN(Cc2ccccn2)CC12CCN(c1cccnc1)C2 (centres undefined),21.6
2,CC(=O)N1N=C(c2ccccc2)OC1C(=O)NCCc1ccc(C)cc1 (centres undefined),0.438
3,c1ccc(CCN2CCCC(Cn3ccnc3)C2)cc1 (centres undefined),-10.4
4,CC(=O)N1CCCC(C(=O)NCCOc2cc(C)cc(C)c2)C1 (centres undefined),18
5,CCN(CC1CCOCC1)C(=O)C1CC(=O)N(Cc2cccnc2)C1 (centres undefined),-5.23
6,Cc1ccnc(OC[C@@]23CCO[C@@H]2CCN(S(C)(=O)=O)C3)n1,-7.11
7,c1coc(-c2nc(CNC3CCC4(CCNCC4)CC3)no2)c1,-3.78
8,CC(=O)OC1CN(c2nc3c(Cl)cccc3s2)C1,-9.84
9,Cc1noc(C)c1CCC(=O)N1CCCC(n2ccnc2C)C1 (centres undefined),3.81
10,O=c1[nH]c(-c2ccncc2)nc2c1CCN(S(=O)(=O)N1CCCC1)C2,-13.7
11,COc1cc(N2CC3(CCN(S(=O)(=O)C4CC4)C3)C2)ncn1,-7.2
12,COc1ncccc1CN1CC[C@H]2[C@H]1CCN2CCN(C)C,-1.63
13,CN(C)C(=O)COC1COC2(CCN(c3cccc(F)c3)CC2)C1 (centres undefined),2.89
14,CC(=O)Nc1ccc(SCC(=O)NCC2CCCO2)nn1 (centres undefined),-2.02
15,O=C(NCc1nc(-c2ncccn2)no1)c1ccc(C2CCCO2)s1 (centres undefined),11.9
16,Cc1nccn1-c1cncc(C2CCCN2Cc2cccnc2)n1 (centres undefined),19.3
17,CC(C1CC1)N(C(=O)NCCCn1nc2ccccn2c1=O)C1CC1 (centres undefined),2.18
18,Cc1cnn(CC2CCCCN2Cc2nnc(-c3ccco3)o2)c1 (centres undefined),-4.33
19,Cc1ccccc1C(=O)NCc1ccc(N2CCNC(=O)C2)cc1,-10.2
20,c1cc(CN2C[C@@H]3OCCN(CC4CCCO4)[C@@H]3C2)cs1 (some centres undefined),-7.25
21,O=C(C[S+]([O-])Cc1ccc(F)cc1)N1CCc2sccc2C1 (centres undefined),-9.59
22,COCC(O)CNC(=O)c1cnc(-c2ccccc2)nc1O (centres undefined),-11.4
23,CNc1ncc(C(=O)N2CCOC(C(=O)N3CCCCCC3)C2)cn1 (centres undefined),-2.75

row,SMILES,cytotoxicity at 70.5 h [%]
1,Fc1ccc(-c2nc(CN3CCOC(Cn4cccn4)C3)co2)cc1 (centres undefined),-5.89
2,Cc1csc(N2CCN(C(=O)c3cc(C4CC4)[nH]n3)CC2)n1,-5.91
3,COCCN(C)S(=O)(=O)c1cc(C)cc(F)c1,-5.49
4,N#Cc1cccc(S(=O)(=O)Nc2c(F)cccc2N2CCCC2)c1,-5.48
5,Nc1ccc(CC2COc3ccccc3C2)cn1 (centres undefined),-5.61
6,CNc1nc2c(s1)C(c1c(F)cccc1Cl)CC(=O)N2 (centres undefined),-6.14
7,CSCc1nc(CNC(=O)C2CCCN(CC(N)=O)C2)cs1 (centres undefined),11.4
8,CC(=O)N1CCN(C(=O)CNc2c(C)cccc2OC(F)F)CC1,-10.2
9,CC(C)N1CCO[C@@H]2CN(C(=O)NCc3ccccc3)CC[C@@H]2C1,28.5
10,Cc1nc(CNC(=O)Nc2ccc(N(C)C)nc2)sc1C,-2.95
11,Cc1ccc(CNC(=O)Cn2c(=O)c3cccnc3n2C)cc1F,-12.5
12,CC(C)NC(=O)[C@@H](NC(=O)N1CCN(c2ccc(Cl)cc2)CC1)C(C)C,6.91
13,COCCS(=O)(=O)NCC(C)c1cccc(C)c1 (centres undefined),-3.93
14,CC(C)Cc1cc(CNC(=O)c2ccccc2C2CCNC2)no1 (centres undefined),-17.5
15,COc1c(C)cnc(CNC(=O)c2cnc3onc(C)c3c2)c1C,12.5
16,Cc1ccc(C(=O)NCCC(C)C)cc1NS(C)(=O)=O,-10
17,COCC(=O)N1CCN(Cn2nc(C)c(Br)c2C)CC1,-2.69
18,Cc1cc(C)c(CNC(=O)NCC2CCCO2)c(=O)[nH]1 (centres undefined),26.7
19,Cc1ccc(OC2(C(=O)O)CCN(C(=O)c3cccc(F)c3)CC2)cn1,2.13
20,COc1cc(OC)cc(-n2ccnc2-c2cc3n(n2)CCNC3)c1,19.3
21,Cc1cc(CN2CCC(N(C)Cc3noc(C4CC4)n3)C2)no1 (centres undefined),13
22,CN(CCc1ccccn1)C(=O)CCC1CCCN(c2ncccn2)C1 (centres undefined),-1.54
23,CSc1ccccc1C(=O)C1CCCN(Cc2ccccn2)C1 (centres undefined),-2.76

row,SMILES,cytotoxicity at 70.5 h [%]
1,O=C1NCCCCC1NCc1csc(-c2ccc(F)cc2)n1 (centres undefined),6.14
2,CCNC(=O)CNS(=O)(=O)c1cc(Br)ccc1F,-2.68
3,CC(C)c1nnc2n1CCN(C(=O)c1cccc(S(C)(=O)=O)c1)C2,17
4,CC(C)OCCC(=O)Nc1c(-c2ccc(F)cc2)ncn1C,2.71
5,CC(C)NC(=O)C1CN(C(=O)c2ccco2)CC12CCOCC2 (centres undefined),-6.64
6,COC(=O)c1cc(NCc2cscn2)ccc1C,-4.82
7,O=S(=O)(C1CC1)N1CCC[C@]2(C[C@@H](Oc3ccccn3)CO2)C1,14.1
8,Cc1noc(C)c1C(=O)N(C)Cc1nc(-c2ccccn2)no1,-1.56
9,Cc1ccc(CN2C(=O)OCC2CO)c2ccccc12 (centres undefined),-6.41
10,CCOc1cccc(C2CC(=O)NCc3nc(N)sc32)c1 (centres undefined),-11.2
11,O=C(Cc1ccc(-n2cccn2)cc1)N1CCN2CCCCC2C1 (centres undefined),3.24
12,COCC1CN(c2ccc(C#N)c(Cl)c2)CCO1 (centres undefined),21.2
13,Cc1nnc([C@@H]2C[C@H]3CN(C4CCC4)C[C@H]3O2)[nH]1,-0.989
14,Cc1ccccc1-c1noc(CN2CCc3nn(C)c(=O)cc3C2)n1,-11.6
15,c1cc(CN2CCCn3cnc(COCC4CC4)c3C2)ccn1,-2.95
16,CC(C)OCc1ccc(CNC(=O)CC(F)(F)F)cc1,-7.73
17,CNc1cc(C(=O)N2CCCCC2CCn2ccnc2C)ccn1 (centres undefined),-2.8
18,O=C(NCc1cccnc1-n1cncn1)c1ccncc1,-4.72
19,N#Cc1cccc(CNC(=O)NC2CCN(CC(F)F)CC2)c1,17.7
20,Cc1cccc(OC2CCN(C(=O)NCc3cc[nH]n3)CC2)c1C,0.923
21,Cc1c(C2CC(=O)Nc3c2cnn3C(C)(C)C)cnn1C (centres undefined),-11.8
22,O=C(c1ccco1)N1CC[C@@H]2O[C@H](COCCN3CCCC3)CC[C@@H]21,10.5
23,NCc1cc(NCC(c2ccccn2)N2CCOCC2)ncn1 (centres undefined),-6.83

row,SMILES,cytotoxicity at 70.5 h [%]
1,CC(C)(C)CN1CCCC2(CCN(C(=O)c3ccc(O)nc3)C2)C1 (centres undefined),-7.83
2,CC(C)Cc1nc(OCC#N)c(C#N)c2c1CCC2,-2.63
3,Cc1cnn(C2CCCN(C(=O)c3c(C)oc4nc[nH]c(=O)c34)C2)c1 (centres undefined),-9.75
4,Cc1ncsc1CN1C[C@@H]2COC[C@]2(COc2ccc(C#N)cn2)C1,-4.4
5,O=C1N(c2cncnc2)CCC12CCCN(Cc1cccnc1)C2 (centres undefined),-3.72
6,Cc1ccccc1C(Nc1ncnc2c1CCNC2)c1ccccc1 (centres undefined),-1.58
7,O=C(NCC1CCOC1)N1CCN(c2ncccn2)CC1 (centres undefined),0.214
8,O=C(CNc1cccc2c1CCCC2)Nc1ccccc1Br,2.61
9,CC(C)(CNC(=O)C1(c2ccccc2)CCOCC1)C(=O)O,-1.55
10,CN1CC(Oc2ccc(Cl)cc2)=NC(SCC(=O)Nc2ccccc2)=N1,7.43
11,CCc1nc(CCn2ccc3nc(OC)c(C#N)cc3c2=O)no1,-4.1
12,O=C(N1CCc2ccccc2CC1)C1(O)Cc2ccccc2C1,-2.64
13,Cc1c(Br)c(C(=O)NC(C)c2ccccc2)nn1C (centres undefined),-13
14,CCNC(=O)c1nnn(Cc2ccccc2)c1OC,-7.02
15,Cc1nc(C)n(CC2CCCN2Cc2ncc(C(C)(C)C)o2)n1 (centres undefined),-4.1
16,Cc1ccc(-c2nc(CNCC3CN(C)CCO3)cs2)o1 (centres undefined),18.6
17,N#Cc1cccc(CN2CC[C@@H]3[C@@H]2CC(=O)N3Cc2ccncc2)c1,-3.67
18,Cc1cc(NC(C)C(=O)NCC(F)(F)F)nc(-c2ccncc2)n1 (centres undefined),-16.5
19,Cc1nn(C)cc1CN(Cc1ccccn1)Cc1ccccc1Cl,4.5
20,CCOCC1CN(Cc2cccnc2OC)Cc2cnn(C)c21 (centres undefined),2.89
21,CCN(CC)C(=O)Cn1cc(C(=O)NCCc2scnc2C)nn1,-1.44
22,Cc1cc(C)c(C#N)c(N2CCC3(CCCN(CCO)C3=O)C2)n1 (centres undefined),12.1
23,COc1ccc(CNC(=O)NC2CCC(O)CC2)c(C(F)(F)F)c1 (centres undefined),-4.62

row,SMILES,cytotoxicity at 70.5 h [%]
1,CCCN1CCc2nc(SCc3ccccc3F)[nH]c(=O)c2C1,6.37
2,O=C(Nc1ccccc1Cn1cccn1)N1CCCC(N2CCCC2)C1 (centres undefined),16.1
3,Cc1ccc(CN2C[C@@H]3CCCO[C@@H]3[C@H](NC(=O)CC3CC3)C2)s1,-1.25
4,COCCN1CCCC2(CCN(c3cccc(C(F)(F)F)n3)C2)C1=O (centres undefined),-9.08
5,CC(=O)N(C)Cc1ccc(OCc2cccs2)cc1,-2.58
6,Cn1ccc(C(=O)Nc2nc(-c3ccc4c(c3)CCO4)cs2)cc1=O,-6.04
7,N[C@H]1CN(C(=O)c2ccc(CO)cc2)C[C@@H]1C1CC1,6.41
8,O=C(CNC(=O)C1CC1)NCc1ccc(Cl)s1,1.44
9,CCN(C(=O)CN1CCn2c(nnc2C2CC2)C1)C1=CCCCC1,-14.8
10,COc1cc(CNC(=O)N(Cc2ccc(F)cc2F)C2CC2)ccn1,-12.9
11,Cc1nc(CNc2ccccc2CCC(F)(F)F)cs1,-9.96
12,O=C(c1ccc[nH]1)N1CCOCC2(C1)CN(c1ccccc1)C(=O)CO2 (centres undefined),-9.1
13,COCCNC(=O)NC1(c2ccccc2F)CC1,-5.87
14,Cc1cccc(C(=O)N2CCN(CCOC(C)C)CC2)n1,-6.81
15,CCOc1cc(C(=O)N(C)C)ccc1NC(=O)C(C)c1ccsc1 (centres undefined),26
16,CCn1nc(C)c(NC(=O)CN2CC[C@@H](F)C2)c1C,-4.28
17,CCN1CCC(CC(=O)NCCc2nc(O)cc(O)n2)CC1,16.1
18,FC1(F)CCN(Cc2ccccn2)CC12CCN(c1cnccn1)C2 (centres undefined),-5.08
19,O=C(NCC1CCCOC1)c1ccc(-c2cccs2)[nH]c1=O (centres undefined),4.28
20,CC(C)CN1C[C@@H]2CN(c3cnccn3)C[C@@H]2C1=O,29.2
21,Cc1nnc(NC(=O)CN2CCc3c(nc(C4CC4)n3C)C2)s1,6.62
22,COCCNc1ncc(-c2cccc(F)c2)c(-c2nccn2C)n1,11
